The term melting point denotes the temperature, or range, at which the solid turns liquid.

Here are results for 88 compounds from a melting point compilation (Tetko et al.; mined from patent text by program, amines drawn as free bases though some values may be those of a salt).

Bounds are passed on as bounds.

Consider `CC(=O)OC1c2ccccc2-c2[nH]c(=O)c(=O)[nH]c21` (stereo not drawn), for which the melting point was greater than 300 °C.

The compound `Clc1ccc(-c2nc3cccnc3n2Cc2ccccn2)cc1` came in with a melting point of 144 to 146 °C. Turning to `Cc1oc2ccccc2c1C(=O)O`, the melting point lay within 171 to 176 °C.

`COC1(C)CC(C)(C)c2ccc(Oc3ccc([N+](=O)[O-])cc3)cc2O1` (stereo not drawn): the melting point turned out to be 125 °C. The same measure for `O=S1(=O)c2ccccc2C(c2ccccc2)N1CCN1CCC(Cc2c[nH]c3ccc(F)cc23)CC1` (stereo not drawn): 175 °C; for `COc1ccc(NC(=N)c2ccccn2)cc1`: 73 to 75 °C. In the case of `Cc1ccccc1-c1nc(N)ncc1-c1ccc(=O)n(C)n1` it was 229 °C; in that of `COc1ccc(CCCl)cc1O`, 53 to 54 °C. As to `COC1C(O)C(CO)OC1n1cnc2c(=S)n(C)cnc21` (stereo not drawn), the melting point was 182 to 187 °C. The same measure for `Nc1cc(N=c2sc(=S)n3n2CCCC3)c(F)cc1Cl`: 59 to 61 °C; for `CC(=O)Oc1ccc(-c2nn(C3CCCC3)c3c(F)cccc23)cc1`: 90 to 91 °C; for `NNC(=S)Nc1ccc2ccccc2c1`: 174 to 176 °C. The same measure for `O=C1CC(=O)/C(=C/c2ccccc2)N1`: 186 to 187 °C; for `COc1ccc(Cn2c(=O)c(C(=O)NC3CCCCC3)c(O)c3cc(F)cnc32)cc1`: 176 °C; for `CC(C)(C)c1cc(CCc2ccccc2NC(=O)NC23CC4CC(CC(C4)C2)C3)cc(C(C)(C)C)c1O`: 197 to 199 °C. `CCCCCCCC(=O)N[C@@H](Cc1ccc(O)cc1)C(=O)OC`: the melting point turned out to be 76 °C. The compound `N#Cc1cnn(-c2ccc(C=O)cc2)n1` gave a melting point of 148 to 150 °C.

With `Cn1c(-c2ccccc2S(C)=O)nc2ccccc21` (stereo not drawn), the melting point lay within 157 to 159 °C. In the case of `CSc1ncnn1C[C@]1(c2cccc(F)c2)O[C@@H]1c1ccccc1Cl` (relative stereo), the melting point was 98 °C. Compound `O=C1c2cccc3cccc(c23)C(=O)N1CCCCO` gave a melting point of 105 to 108 °C. In the case of `COc1ccccc1-n1c(CCl)nc2ccccc2c1=O` it was 193 to 194 °C. `CC(C)(Oc1ccc(CCC(=O)c2cc(-c3ccc(C(F)(F)F)cc3)cs2)c(Cl)c1Cl)C(=O)O` yielded a melting point of 99 to 101 °C.

Turning to `CCCc1ccc(Oc2ccc3c(c2)C=C(C(=O)O)CCS3(=O)=O)cc1`, the melting point was 147 to 149 °C. The same measure for `CCOC(=O)c1ccc2c(c1)nc(-c1c(Cl)cccc1Cl)n2C`: 164 to 166 °C; for `CNS(=O)(=O)CC(=O)c1cc(OC)c(OC)c(OC)c1N`: 125 to 127 °C; for `OC1CCN(c2cc(-c3ccccc3)nc(-c3ccccc3)n2)CC1`: 158 to 160 °C. `COc1nc(-c2ccccc2F)c2ccsc2n1` came in with a melting point of 175 to 176 °C. In the case of `O=C1NCCc2c(OCCCN3CCCCC3)cccc21` it was 112 to 114 °C; in that of `COC(=O)COc1cccc2c(CCBr)coc12`, 58 to 59 °C; in that of `CC(C)(C)NCC(O)c1cc(Cl)c(NC(=O)c2ccccc2)c(Cl)c1` (stereo not drawn), 177 to 182 °C.

Compound `COc1ccc(N2CCN(c3c(C)c(C)c4c(c3C)C(O)(c3ccsc3)C(C)(C)O4)CC2)cc1` (stereo not drawn) displayed a melting point of 131 to 133 °C.

In turn, `O=C1c2c(cccc2C(F)(F)F)-n2cnc(-c3noc(CN4Cc5ccccc5C4)n3)c2[C@@H]2CCN12` gave a melting point of 185 to 188 °C. Compound `COc1cccc(P2(=O)c3ccccc3CN2c2ccccc2)c1` (stereo not drawn) had a melting point of 170 to 172 °C.

Compound `CC(=O)[C@H]1CC[C@H]2[C@@H]3CCC4=C/C(=N/OC(=O)[C@@H](NC(=O)OC(C)(C)C)C(C)C)CC[C@]4(C)[C@H]3CC[C@]12C` registered a melting point of 147 to 149 °C. In turn, `COc1cc(OC)c2c(=O)c(I)coc2c1` yielded a melting point of 158 to 160 °C.

Consider `COCCc1nc2c(N)nc3cc(Br)ccc3c2s1`, for which the melting point lay in the range of 172 to 175 °C. As to `Clc1cc2c(cc1Cl)C(Cl)Cc1ccccc1S2` (stereo not drawn), the melting point lay in the range of 130 to 131 °C. With `Cc1c2c(nc3ccccc13)CCN(C(=O)c1ccc(Cl)cc1)CC2`, the melting point came out at 163 °C.

Compound `CCN(CC)C(=O)Oc1c2c(nn1-c1ccc(F)cc1)CCc1cc(F)ccc1-2` had a melting point of 141 to 142 °C. In the case of `Cc1cc2cc(CN3CCCC3)cnc2cc1NC(=O)c1ccc(-c2ccsc2)cc1` it was 187 °C. The same measure for `CC1(CN2CCC(S(=O)c3ccc(OC(F)(F)F)cc3)CC2)Cn2cc([N+](=O)[O-])nc2O1` (stereo not drawn): 107 to 109 °C; for `CN1CCN(CCn2c3ccccc3c(=NN=C3NCCS3)c3ccccc32)CC1`: 204 to 205 °C; for `CCOC(=O)c1ncn(-c2nccs2)c1S`: 155 to 158 °C. In the case of `CCOC(=O)c1cccc(C(=O)CC)c1OCCN(CC)CC`, the melting point lay in the range of 103 to 105 °C. In the case of `CCCN(CCC)CC(=O)OC1CC2(C)C(C(C)=O)CCC2C2CCC3CC(O)CCC3(C)C12` (stereo not drawn) it was 116 to 118 °C; in that of `CCCC(Oc1ccccc1Br)C(=O)O` (stereo not drawn), 63 °C. The same measure for `COC(=O)C=Cc1ccc2c(c1)Cc1cc(C=CC(=O)OC)ccc1-2`: 206 to 209 °C. `CCOP(=O)(OCC)c1ccc2cccc(-c3cccc4ccccc34)c2n1` had a melting point of 128 °C.

`CNC(=S)C1(c2cccnc2)CCCCCC1=O` (stereo not drawn) returned a melting point of 144 to 146 °C. Consider `CCCCCCCCCCc1c(C)nc2ccccn2c1=O`, for which the melting point is 66 to 67.5 °C. `CN(C)Cc1nnc(CN(C)C)n1-c1ccc(Cl)cc1C(=O)c1ccccc1` displayed a melting point of 148 to 152 °C. The same measure for `CC(C#N)(c1ccccc1)c1ccc(Cl)nn1` (stereo not drawn): 116 to 118 °C; for `CCOc1sc(C(=O)O)c2c1-c1c(cnn1C)CC2`: 258 to 260 °C.

The compound `CC(C)N(C[C@H](O)[C@H](Cc1ccccc1)NC(=O)[C@H](CC(N)=O)NC(=O)c1ccccn1)NC(=O)OC(C)(C)C` yielded a melting point of 101 to 108 °C. The same measure for `CC(C)(C)OC(=O)N1CCN(S(=O)(=O)c2ccc(S(=O)(=O)c3ccc4cc(Br)ccc4c3)cc2)CC1`: 213 to 215 °C. `COc1cc(OCCN2CCN(C)CC2)ccc1/C=C/c1cc(/C=C/c2ccc3cc[nH]c3c2)n[nH]1` came in with a melting point of 134 to 142 °C. The same measure for `CCCCc1nc2c(N)nc3cccnc3c2n1CCCCNC(=O)Cn1cc(C)c(O)nc1=O`: 242 to 244 °C. Turning to `O=C(NC1N=C(c2ccccc2F)c2ccccc2NC1=O)c1ccsc1` (racemic), the melting point was in the range of 238 to 239 °C.

For the compound `NC(=O)c1c(Cl)c(-c2ccccc2)n2c1CN(S(=O)(=O)Nc1ccccc1)CC2`, the melting point was 207 to 208 °C. For the compound `CC(C)Oc1nc(C#N)c(C#N)nc1Cl`, the melting point fell in the range of 48.5 to 50 °C.

Consider `Nc1ccc(F)c2c1C(=O)c1ccccc1-2`, for which the melting point was 205 to 206 °C. In the case of `CC1(C)CCC(C)(C)c2cc(Oc3ccc4c(CO)cccc4c3)ccc21` it was 131 to 133 °C; in that of `CCOC(=O)CCc1cn(C)nc1O`, 89 to 91 °C; in that of `Cc1cc(-n2ccnc2)c2cccc(OCc3c(Cl)ccc(S(=O)(=O)N4CCC[C@H]4C(=O)NCCN4CCCCC4)c3Cl)c2n1`, 108 °C. `O=C(c1cccs1)c1cccc2nc(N[C@@H]3CCc4ccccc43)ccc12` displayed a melting point of 176 °C.

For the compound `CCCCCS(=O)(=O)NC(=O)C=Cc1ccc(OCCCC#N)cc1Oc1ncc(C(F)(F)F)cc1Cl`, the melting point fell in the range of 165 to 166 °C.

As for `N#CCc1cccc(Cc2nc3c(F)c(F)cc(F)c3s2)c1Cl`, the melting point lay in the range of 148 to 151 °C.

On to `CCOC(=O)C1=C(CCl)N2CCOC2(C)C(C(=O)OC)C1c1ccccc1Cl` (stereo not drawn), for which the melting point is 142 to 143 °C. Take `N#Cc1ccc(CC23CCCN2C(=O)N(c2cc(Cl)c(N)c(Cl)c2)C3=O)cc1` (stereo not drawn): the melting point amounted to 103 °C. For `NS(=O)(=O)c1ccc(C2=NNC(C(=O)O)C2)cc1` (stereo not drawn), the melting point lay in the range of 224 to 226 °C. In turn, `CC1(C)C(=O)NC(=O)c2ccccc21` returned a melting point of 84 to 88 °C.

For `CNC(=O)[C@@H]1CCN1S(=O)(=O)c1ccc(Cl)c(COc2cccc3c(-n4ccnc4)cc(C)nc23)c1Cl`, the melting point is 118 °C.

In turn, `Cc1cc(SCc2ccc(-c3ccc(C(F)(F)F)cc3)cc2)c(Cl)cc1OCC(=O)O` had a melting point of 161 to 162 °C. The same measure for `CC1CCC(C(C)C)C(OC(=O)C2(CC(=O)OC(C)(C)C)C(=O)N(Cc3ccc(Br)cc3F)C(=O)c3cccn32)C1` (stereo not drawn): 99 to 100 °C.

As for `CSC1=NC2=NC3=C(CNCC3=O)CN2N1`, the melting point lay in the range of 266 to 269 °C. Consider `CCOC(=O)CCN1CCC(OC(c2ccccc2)c2ccc(C)cc2)CC1` (stereo not drawn), for which the melting point lay in the range of 101 to 104 °C.

Regarding `CC(C)Cn1c(=O)n(C)c(=O)c2c(S(=O)(=O)N3CC[C@@H](O)C3)c(Cc3cccnc3)sc21`, the melting point was in the range of 161 to 162 °C. In the case of `COc1ccc(C(=O)Nc2ccc3ccc(Oc4ccccc4OC)nc3n2)cc1` it was 168 to 170 °C; in that of `O=C(Nc1ccccc1)N1CC2CCC(C1)O2`, 184 to 186 °C. `O=C(Nc1ccc2[nH]c(=S)oc2c1)C(=O)N1CCC(Cc2ccccc2)CC1` displayed a melting point of 203 °C.

With `O=C1c2ccccc2C(=O)N1CC1=Nc2ccccc2N(Cc2ccccc2)C(=O)C1`, the melting point is 186 °C. In the case of `COC(=O)c1ncn2c1[C@@H]1CCCN1C(=O)c1sccc1-2` it was 192 to 193 °C. Take `CCOC(=O)c1ncn2c1C(C)N=C(c1ccccn1)c1cc(Br)ccc1-2` (stereo not drawn): the melting point is 193 to 195 °C. The same measure for `CCCN1C(=O)N2C(=NCC2c2ccccc2)c2c1ncn2C` (stereo not drawn): 152 to 154 °C; for `CCCCCCCCCOc1ccc(-c2ccc(OCC(C)CC)nn2)cc1` (stereo not drawn): 87 °C.

Consider `N#CC1(c2ccccc2)CCCCC1`, for which the melting point was 120 to 122 °C. In the case of `COc1cc(Nc2nccc(-c3ccc(N4CCN(CCCO)CC4)nc3)n2)cc(OC)c1OC` it was 116 to 117 °C. The same measure for `COc1ccc(-n2ccn([C@H](C)[C@@]3(c4ccc(F)cc4F)CO3)c2=O)cc1`: 150 to 151 °C.
